Test results published in publication PMC6815956, “Bioinspired Self-assembling Peptide Hydrogel with Proteoglycan-assisted Growth Factor Delivery for Therapeutic Angiogenesis” (Theranostics, 2019).

How the values were obtained:
[1] = In vitro disintegration in PBS (ninhydrin); format: physicochemical; conditions: 2 % (w/v) hydrogel, 37 °C, ninhydrin 570 nm, n = 6; for total disintegration in PBS: 35 days; for disintegration in PBS: first three days
Protocol: (§1) The 2 % (w/v) RADA16-QLK and RADA16-LRK peptide solutions were mixed in a volume ratio of 3:1, and then introduced into a self-made cylinder mold. PBS buffer or cell culture medium was further added to trigger sol-gel transition. For the crosslinking process, the self-assembled cylindrical hydrogel was soaked into mTG solution (20 U/mL PBS) for 12 h at 38 °C. 40 µL of peptide hydrogel was transferred into a 96-well plate followed by 200 µL of PBS added to each well and incubated at 37 °C. At predetermined time points (3, 12, 24, 72, 168, 336, 504, 672, and 840 h), the supernatant was completely removed by syringe and replenished with fresh PBS. The collected supernatant was then stored at -80 °C for further tests. Ninhydrin reagent solution was employed to quantify the disintegrated peptide amino acid sequences of the hydrogel according to manufacturer's protocols. After the addition of 95 % ethanol to stop the reaction, the absorbance of the hydrogel at 570 nm was measured by a SpectraMax Plus 384 Microplate Reader.
To evaluate the stability of the peptide hydrogel in PBS buffer, Ninhydrin reagent solution was used to quantify the disintegration rate of peptide hydrogel in vitro. […] After this initial period of rapid disintegration, the kinetics slowed down. […] The disintegration rate of hydrogel was slower in the crosslinking group when compared with that in the non-crosslinking group during the investigative time period. Next, we are interested in figuring out if different culture condition will result in different peptide disintegration rate. Thus, another group of peptides incubated in cell culture medium was also conducted for comparison.

[2] = In vitro disintegration in cell culture medium; format: physicochemical; conditions: 2 % (w/v) hydrogel, with and without mTG (20 U/mL), n = 6
Protocol: as §1
To evaluate the stability of the peptide hydrogel in PBS buffer, Ninhydrin reagent solution was used to quantify the disintegration rate of peptide hydrogel in vitro. […] After this initial period of rapid disintegration, the kinetics slowed down. […]

[3] = Shear recovery (continuous step strain); format: physicochemical; conditions: 1 % strain 60 s, 50 % strain 30 s, three cycles, 25 °C, n = 6
Protocol: (§2) The mechanical properties of the hydrogel scaffold were measured using a rheometer (Anton Paar, US). Measurements for the dynamic oscillatory frequency sweep (0.1-100 Hz) were performed at 1% strain amplitude and 25 °C. Shear recovery (1 % strain for 60 s, 50 % strain for 30 s, 1 % strain for 60 s) was conducted for three cycles at 25 °C. All measurements were performed on a 25-mm cone plate and the Anton Paar Rheometer software was used for analysis.
(§3) To test the mechanical stability and stiffness of the peptide hydrogel, frequency sweep and shear recovery measurements were conducted. […] The storage modulus (G') of QLK hydrogel increased from 1000 Pa to 5000 Pa, while the G' of QLK/LRK hydrogel increased from 400 Pa to 2500 Pa (Figure 3A-B). At least a five-fold enhancement in rheological stiffness and the mechanical properties of QLK-functionalized hydrogel were adjustable with mTG treatment. The concentration of transglutaminase also had influence on the mechanical properties of the hydrogel. Basically, the storage modulus (G') of the hydrogel was increased with the increase of mTG concentration. It was measured at pressure levels of 1 kPa, 1.5 kPa, 3 kPa, 5 kPa with respect to the concentrations of 0 U/mL, 5 U/mL, 10 U/mL, 20 U/mL.

[4] = TEM and AFM of nanofibers; format: physicochemical; conditions: 0.05 % (w/v); for fiber morphology: TEM
Protocol: Transmission electron microscopy (TEM) was used to observe the microstructure of peptides with a Hitachi HT7700 (120 kV) Bio-TEM. The 0.05 % (w/v) RADA16-QLK before and after microbial transglutaminase (mTG) crosslinking were prepared at pH 7. The TEM samples were prepared by dropping 10 μL of peptide solution on the copper grid coated with carbon film and stained with 2 % phosphotungstic acid solution. The morphology of the peptide scaffolds was captured using atomic force microscopy (AFM) (DI Dimension 3100, Veeco Instruments Inc, US) in dynamic force mode. In brief, 0.05 % (w/v) peptide solution was sprayed on the surface of a cleaved mica for 5 min, the surface was then washed with sterilized water for several times and blown dry by anhydrous nitrogen.
(§4) TEM images were obtained to identify the morphological change of nanofiber microstructure before and after enzymatic crosslinking. […] From the findings of TEM and AFM images, the interwoven nanofibers with diameters of 10-20 nm and pore sizes between 10-200 nm were similar to natural ECM fibers in both appearances and scales (Figure 2B-E).

[5] = Oscillatory rheology, frequency sweep; format: physicochemical; conditions: for storage modulus (G'): frequency sweep, 1 % strain
Protocol: as §2, §1, §3
Figure 3 Rheological properties of peptide hydrogel.

[6] = Circular dichroism spectroscopy (secondary structure); format: physicochemical; conditions: 0.05 % (w/v)
Protocol: Circular dichroism (CD) spectra were collected on a CD Spectrometer Model 410 (AVIV Biomedical Inc.) to explore the secondary structure of SAPs. The cuvette quartz cell's path length was 1mm with a wavelength range between 190-260 nm at ambient temperature. The 0.05 % (w/v) RADA16-QLK, RADA16-LRK, and HS solution were allowed to store at 4 °C overnight to ensure complete self-assembly before measurement.
as §4

HUVECs = experiment: Endothelial tube-like formation assay; format: cell-based, human; conditions: GF released from hydrogel (200 ng, 3 days), 8 h, n = 8, vs basal medium
Protocol: To identify the angiogenic ability of released GFs in vitro, 80 µL of GF-depleted peptide hydrogel was introduced to a pre-cooled 96-well plate using chilled pipet tips. The gel was incubated for 30 min at 37 °C with 5 % CO2 to induce gelation. [drawing 4] HUVECs were first seeded on GF-depleted peptide hydrogel with 100 μL of culture medium and incubated for 8 h. […] Finally, the differentiations of HUVECs were observed periodically for 8 h under an inverted phase contrast microscope. Angiogenesis Analyzer ImageJ (NIH) was employed for quantification and the images were taken in ten random fields per sample.
Figure 5 The human umbilical vein endothelial cells (HUVECs) tube-like formation assay. […] (B) The original images were analyzed by Angiogenesis Analyzer for ImageJ (NIH), and the quantified result of total vessels length, total meshes area, total branches intervals were calculated (all the values were normalized with the analyzed area). […] Error bars show ± S.D. for total n = 8.

[7] = Isothermal titration calorimetry, binding of HS to LRK; conditions: ITC, 25 °C, PBS
Protocol: Isothermal titration calorimetry (ITC) measurements were operated at 25 °C using a Micro ITC-200 microcalorimeter (GE Healthcare Life Sciences). The procedure was performed by titrating 0.35 mM HS from a syringe into 0.2 mM RADA16-LRK peptide solution loaded in a cell (both in PBS). In the next step, the data were integrated after background correction and fitted to a curve to obtain the binding constant.
To test the binding affinity between HS and […] peptide sequence, the molecular interactions between LRK sequence and HS were studied by ITC. Heat changes were recorded when the increments of HS solution were titrated drop by drop into functionalized peptide LRK solution. The binding constant Ka = [drawing 5] M^-1 was then obtained by approximating the integrated data into a fitting curve (Figure 4A).

[8] = GF loading efficiency (ELISA); format: physicochemical; conditions: GF/HS complex in QLK/LRK peptide hydrogel, n = 6
Protocol: (§5) At specific time intervals, the supernatants were collected, stored at -80 °C, and fresh release buffer was compensated. […] After adding the stop solution, the absorbance of the hydrogel at 450/540 nm was recorded by SpectraMax Plus 384 Microplate Reader.
(§6) It was the major challenge for scaffold-based GF delivery that how to maintain the release rate of incorporated GFs.

[9] = GF release profile (ELISA); format: physicochemical; conditions: from GAG-assisted QLK/LRK hydrogel, PBS w/ 0.05 % Tween 20, 1 % BSA, 37 °C, n = 6
Protocol: as §5, §6

[10] = compared with VEGF; ref [20]; cited from earlier work

AcN-RADARADARADARADAGGQQLK-NH2 [self-assembling peptide with transglutaminase-crosslinkable QQLK motif; forms hydrogel]
total disintegration in PBS ([1]; mTG-crosslinked (20 U/mL)): approximately 61%
total disintegration in PBS ([1]; non-crosslinked): ~82%
disintegration in PBS ([1]; mTG-crosslinked (20 U/mL)): 20%
disintegration in PBS ([1]; non-crosslinked): 40%
disintegration in cell culture medium vs PBS [2]: degraded faster in the culture medium condition compared to that in PBS, especially in the group without crosslinking
shear thinning / shear recovery [3]: shear thinning and a potential shear recovery ability
nanofiber diameter ([4]; TEM and AFM, pH 7): 10-20 nm
pore size of fibrous network ([4]; TEM and AFM, pH 7): 10-200 nm
fiber morphology ([4]; pH 7, after mTG (20 U/mL) crosslinking): more densely-compacted nanofibrous entanglements and more continuous self-assembling fibers
fiber morphology ([4]; pH 7, before enzymatic crosslinking): Sparsely-wired fiber entanglements
enhancement of stiffness / storage modulus by mTG ([5]; after vs before mTG, 25 °C): five-fold increase of storage modulus
storage modulus (G') ([5]; 25 °C, after mTG crosslinking): 5000 Pa
storage modulus (G') ([5]; 25 °C, before mTG crosslinking): 1000 Pa
storage modulus (G') vs mTG concentration ([5]; mTG 0 U/mL): 1 kPa
storage modulus (G') vs mTG concentration ([5]; mTG 5 U/mL): 1.5 kPa
storage modulus (G') vs mTG concentration ([5]; mTG 10 U/mL): 3 kPa
storage modulus (G') vs mTG concentration ([5]; mTG 20 U/mL): 5 kPa
secondary structure by CD ([6]; 4 °C overnight, ambient temperature, without mTG): β-sheet secondary structure
secondary structure by CD ([6]; after mTG crosslinking): β-sheet secondary structure
CD negative maximum peak ([6]; after mTG crosslinking): 216 nm
CD positive maximum peak ([6]; after mTG crosslinking): ~195 nm
CD negative maximum peak ([6]; without mTG): 216 nm
CD positive maximum peak ([6]; without mTG): ~195 nm

VEGF
tube-like formation of HUVECs (HUVECs): positive effect on tube-like formation of HUVECs

AcN-RADARADARADARADAGGLRKKLGKA-CONH
HS binding (in words) [7]: good HS binding consensus sequence

HGF: Recombinant Human HGF (HEK293 derived); hepatocyte growth factor
loading efficiency [8]: ~82.5 ± 2.1%
cumulative release, total ([9]; 28 days, ELISA): approximately 46%
cumulative release, initial ([9]; day 3, ELISA): 25%
binding affinity with heparin or HS (in words) [10]: higher binding affinity with heparin or HS than VEGF
tube-like formation of HUVECs (HUVECs): positive effect on tube-like formation of HUVECs
